Laboratory results as given in ChEMBL document CHEMBL5104172, “Design, synthesis, and antibacterial activity of derivatives of Tryptophanyl-tRNA synthetase inhibitor indolmycin” (Eur J Med Chem, 2022).
Converted amounts (≈) assume the structure as drawn.

How the values were obtained:
Assay type in all cases: functional
[1] = system: Staphylococcus aureus; assay: Antibacterial activity against Staphylococcus aureus ATCC 29213 measured by liquid dilution method
[2] = system: Staphylococcus aureus; assay: Antibacterial activity against methicillin-resistant Staphylococcus aureus MRSA17-1 measured by liquid dilution method
[3] = system: Staphylococcus aureus; assay: Antibacterial activity against methicillin-resistant Staphylococcus aureus MRSA17-2 measured by liquid dilution method
[4] = system: Staphylococcus aureus; assay: Antibacterial activity against methicillin-resistant Staphylococcus aureus MRSA17-3 measured by liquid dilution method
[5] = system: Staphylococcus aureus; assay: Antibacterial activity against methicillin-resistant Staphylococcus aureus MRSA17-5 measured by liquid dilution method
[6] = system: Staphylococcus aureus; assay: Antibacterial activity against methicillin-resistant Staphylococcus aureus MRSA17-6 measured by liquid dilution method
[7] = system: Staphylococcus aureus; assay: Antibacterial activity against methicillin-resistant Staphylococcus aureus ATCC 33591 measured by liquid dilution method
[8] = system: Staphylococcus aureus; assay: Antibacterial activity against methicillin-resistant Staphylococcus aureus ATCC 43300 measured by liquid dilution method
[9] = system: Staphylococcus aureus; assay: Antibacterial activity against vancomycin-intermediate Staphylococcus aureus ATCC 700699 measured by liquid dilution method
[10] = system: Staphylococcus aureus; assay: Antibacterial activity against vancomycin-intermediate Staphylococcus aureus ATCC 700788 measured by liquid dilution method
[11] = system: Staphylococcus aureus; assay: Antibacterial activity against methicillin-sensitive Staphylococcus aureus MSSA17-1 measured by liquid dilution method
[12] = system: Staphylococcus aureus; assay: Antibacterial activity against methicillin-sensitive Staphylococcus aureus MSSA17-2 measured by liquid dilution method
[13] = system: Staphylococcus aureus; assay: Antibacterial activity against methicillin-sensitive Staphylococcus aureus MSSA17-3 measured by liquid dilution method
[14] = system: Staphylococcus epidermidis; assay: Antibacterial activity against methicillin-resistant Staphylococcus epidermidis MRSE17-1 measured by liquid dilution method
[15] = system: Staphylococcus epidermidis; assay: Antibacterial activity against methicillin-resistant Staphylococcus epidermidis MRSE17-2 measured by liquid dilution method
[16] = system: Staphylococcus epidermidis; assay: Antibacterial activity against methicillin-resistant Staphylococcus epidermidis MRSE17-3 measured by liquid dilution method
[17] = system: Staphylococcus epidermidis; assay: Antibacterial activity against methicillin-resistant Staphylococcus epidermidis MRSE17-4 measured by liquid dilution method
[18] = system: Staphylococcus epidermidis; assay: Antibacterial activity against methicillin-resistant Staphylococcus epidermidis MRSE17-6 measured by liquid dilution method
[19] = system: Staphylococcus epidermidis; assay: Antibacterial activity against methicillin-sensitive Staphylococcus epidermidis MSSE17-1 measured by liquid dilution method
[20] = system: Staphylococcus epidermidis; assay: Antibacterial activity against methicillin-sensitive Staphylococcus epidermidis MSSE17-2 measured by liquid dilution method
[21] = system: Staphylococcus epidermidis; assay: Antibacterial activity against methicillin-sensitive Staphylococcus epidermidis MSSE17-3 measured by liquid dilution method
[22] = system: Enterococcus faecalis; assay: Antibacterial activity against Enterococcus faecalis EFA17-1 measured by liquid dilution method
[23] = system: Enterococcus faecalis; assay: Antibacterial activity against Enterococcus faecalis ATCC 29212 measured by liquid dilution method
[24] = system: Enterococcus faecium; assay: Antibacterial activity against Enterococcus faecium EFM17-1 measured by liquid dilution method
[25] = system: Enterococcus faecium; assay: Antibacterial activity against Enterococcus faecium EFM17-2 measured by liquid dilution method

| SMILES | MIC [1] | MIC [2] | MIC [3] | MIC [4] | MIC [5] | MIC [6] | MIC [7] | MIC [8] | MIC [9] | MIC [10] | MIC [11] | MIC [12] | MIC [13] | MIC [14] | MIC [15] | MIC [16] | MIC [17] | MIC [18] | MIC [19] | MIC [20] | further results |
| --- | --- | --- | --- | --- | --- | --- | --- | --- | --- | --- | --- | --- | --- | --- | --- | --- | --- | --- | --- | --- | --- |
| CNC1=NC(=O)[C@H]([C@H](C)c2c[nH]c3cccc(Br)c23)O1 | 4 µg/mL (≈ 11.9 µM) | 2 µg/mL (≈ 5.95 µM) | 2 µg/mL (≈ 5.95 µM) | 1 µg/mL (≈ 2.97 µM) | 2 µg/mL (≈ 5.95 µM) | 2 µg/mL (≈ 5.95 µM) | 4 µg/mL (≈ 11.9 µM) | 2 µg/mL (≈ 5.95 µM) | 1 µg/mL (≈ 2.97 µM) | 2 µg/mL (≈ 5.95 µM) | 2 µg/mL (≈ 5.95 µM) | 4 µg/mL (≈ 11.9 µM) | 2 µg/mL (≈ 5.95 µM) | 2 µg/mL (≈ 5.95 µM) | 2 µg/mL (≈ 5.95 µM) | 0.5 µg/mL (≈ 1.49 µM) | 2 µg/mL (≈ 5.95 µM) | 2 µg/mL (≈ 5.95 µM) | 1 µg/mL (≈ 2.97 µM) | 1 µg/mL (≈ 2.97 µM) | MIC [21]: 1 µg/mL (≈ 2.97 µM); MIC [22]: > 128 µg/mL; MIC [23]: > 128 µg/mL; MIC [24]: > 128 µg/mL; MIC [25]: > 128 µg/mL |
| CNC1=NC(=O)[C@@H]([C@@H](C)c2c[nH]c3cccc(F)c23)O1 | > 128 µg/mL | > 128 µg/mL | > 128 µg/mL | > 128 µg/mL | > 128 µg/mL | > 128 µg/mL | > 128 µg/mL | > 128 µg/mL | > 128 µg/mL | > 128 µg/mL | > 128 µg/mL | > 128 µg/mL | > 128 µg/mL | > 128 µg/mL | > 128 µg/mL | > 128 µg/mL | > 128 µg/mL | > 128 µg/mL | > 128 µg/mL | > 128 µg/mL | MIC [21]: > 128 µg/mL; MIC [22]: > 128 µg/mL; MIC [23]: > 128 µg/mL; MIC [24]: > 128 µg/mL; MIC [25]: > 128 µg/mL |
| CNC1=NC(=O)[C@@H]([C@@H](C)c2c[nH]c3cccc(Cl)c23)O1 | 64 µg/mL (≈ 219 µM) | 64 µg/mL (≈ 219 µM) | 64 µg/mL (≈ 219 µM) | 64 µg/mL (≈ 219 µM) | 64 µg/mL (≈ 219 µM) | 64 µg/mL (≈ 219 µM) | 64 µg/mL (≈ 219 µM) | 64 µg/mL (≈ 219 µM) | > 128 µg/mL | 128 µg/mL (≈ 439 µM) | 64 µg/mL (≈ 219 µM) | 64 µg/mL (≈ 219 µM) | 64 µg/mL (≈ 219 µM) | 128 µg/mL (≈ 439 µM) | 128 µg/mL (≈ 439 µM) | > 128 µg/mL | 64 µg/mL (≈ 219 µM) | 64 µg/mL (≈ 219 µM) | > 128 µg/mL | > 128 µg/mL | MIC [21]: > 128 µg/mL; MIC [22]: > 128 µg/mL; MIC [23]: > 128 µg/mL; MIC [24]: > 128 µg/mL; MIC [25]: > 128 µg/mL |
| CNC1=NC(=O)[C@@H]([C@@H](C)c2c[nH]c3cccc(C)c23)O1 | > 128 µg/mL | > 128 µg/mL | > 128 µg/mL | > 128 µg/mL | > 128 µg/mL | > 128 µg/mL | > 128 µg/mL | > 128 µg/mL | > 128 µg/mL | > 128 µg/mL | > 128 µg/mL | > 128 µg/mL | > 128 µg/mL | > 128 µg/mL | > 128 µg/mL | > 128 µg/mL | > 128 µg/mL | > 128 µg/mL | > 128 µg/mL | > 128 µg/mL | MIC [21]: > 128 µg/mL; MIC [22]: > 128 µg/mL; MIC [23]: > 128 µg/mL; MIC [24]: > 128 µg/mL; MIC [25]: > 128 µg/mL |
| CNC1=NC(=O)[C@@H]([C@@H](C)c2c[nH]c3cccc(Br)c23)O1 | > 128 µg/mL | 128 µg/mL (≈ 381 µM) | 128 µg/mL (≈ 381 µM) | 64 µg/mL (≈ 190 µM) | 128 µg/mL (≈ 381 µM) | 128 µg/mL (≈ 381 µM) | 128 µg/mL (≈ 381 µM) | 128 µg/mL (≈ 381 µM) | 128 µg/mL (≈ 381 µM) | 128 µg/mL (≈ 381 µM) | 128 µg/mL (≈ 381 µM) | 128 µg/mL (≈ 381 µM) | 128 µg/mL (≈ 381 µM) | > 128 µg/mL | 128 µg/mL (≈ 381 µM) | > 128 µg/mL | 128 µg/mL (≈ 381 µM) | 128 µg/mL (≈ 381 µM) | 128 µg/mL (≈ 381 µM) | 64 µg/mL (≈ 190 µM) | MIC [21]: 128 µg/mL (≈ 381 µM); MIC [22]: > 128 µg/mL; MIC [23]: > 128 µg/mL; MIC [24]: > 128 µg/mL; MIC [25]: > 128 µg/mL |
| CNC1=NC(=O)[C@H]([C@H](C)c2c[nH]c3cc(F)ccc23)O1 | 16 µg/mL (≈ 58.1 µM) | 8 µg/mL (≈ 29.1 µM) | 8 µg/mL (≈ 29.1 µM) | 8 µg/mL (≈ 29.1 µM) | 16 µg/mL (≈ 58.1 µM) | 8 µg/mL (≈ 29.1 µM) | 16 µg/mL (≈ 58.1 µM) | 8 µg/mL (≈ 29.1 µM) | 4 µg/mL (≈ 14.5 µM) | 8 µg/mL (≈ 29.1 µM) | 16 µg/mL (≈ 58.1 µM) | 16 µg/mL (≈ 58.1 µM) | 8 µg/mL (≈ 29.1 µM) | 16 µg/mL (≈ 58.1 µM) | 16 µg/mL (≈ 58.1 µM) | 4 µg/mL (≈ 14.5 µM) | 16 µg/mL (≈ 58.1 µM) | 16 µg/mL (≈ 58.1 µM) | 8 µg/mL (≈ 29.1 µM) | 8 µg/mL (≈ 29.1 µM) | MIC [21]: 8 µg/mL (≈ 29.1 µM); MIC [22]: > 128 µg/mL; MIC [23]: > 128 µg/mL; MIC [24]: > 128 µg/mL; MIC [25]: > 128 µg/mL |
| CNC1=NC(=O)[C@@H]([C@@H](C)c2c[nH]c3ccccc23)O1 | > 128 µg/mL | > 128 µg/mL | > 128 µg/mL | > 128 µg/mL | > 128 µg/mL | > 128 µg/mL | > 128 µg/mL | > 128 µg/mL | > 128 µg/mL | > 128 µg/mL | > 128 µg/mL | > 128 µg/mL | > 128 µg/mL | > 128 µg/mL | > 128 µg/mL | > 128 µg/mL | > 128 µg/mL | > 128 µg/mL | > 128 µg/mL | > 128 µg/mL | MIC [21]: > 128 µg/mL; MIC [22]: > 128 µg/mL; MIC [23]: > 128 µg/mL; MIC [24]: > 128 µg/mL; MIC [25]: > 128 µg/mL |
